Source: patent US11590181B2, “Serpin production” (SOCIETE DES PRODUITS NESTLE S.A., priority 2017, dated 2023)
Where no end group is shown, it is not given here.

Tests used:
[1] = tested on: serpin gene in B. longum NCC 2705; assay: Sugar induction of serpin gene transcription in Biolector culture (qRT-PCR); format: cell-based; details: 180 min sugar induction at 0.1%, relative to growth in only MRSc (FIG. 1)
Experimental: FIG. 1—Relative transcription level of serpin gene in B. longum NCC 2705 after 180 min sugar induction at a concentration of 0.1%. The bars indicate the relative amounts of serpin mRNAs for the specific samples comparing to that of growth in only MRSc. Black bars represent significant induction. The standard deviation was obtained from at least 2 different experiments (95% confidence interval).
BL NCC 2705 (B. longum strain CNCM I-2618) was grown in Biolector (growth conditions—anaerobic, 37° C., MRS+5 mM L-cysteine (MRSc).
48-well microtiter plate with pH sensor and dissolved oxygen (DO) sensor were used to culture the strains in Biolector (m2p-labs Aachen, Germany). It was continuously shaken to prevent bacteria aggregation and measurements were performed every 15 min. Plates were sealed with a gas permeable film and an anaerobe-chamber provides well-defined anaerobic gassing conditions. Fermentation parameters like biomass, pH and dissolved oxygen (DO) were monitored online throughout the entire growth using the BioLection HMI software. Growth parameters were:
The following carbohydrates were added to the cultures individually:
B. longum NCC 2705 was then further cultivated in the same conditions for 180 min, after which samples (500 μl) were collected and serpin mRNA levels measured. Every fermentation was performed at least in duplicate.
Total RNA isolation—500 μl of bacterial cultures were suspended in 1 ml of RNA protect bacteria reagent (Qiagen, Germany) and briefly centrifuged 10 min at 5000 g to harvest cells for total RNA extraction.
Total RNA was extracted using the RNeasy total RNA Mini kit (Qiagen, Germany, Ca. No. 74101) with protease K (Qiagen, Germany, Ca. No. 19131) and further treated using RNase-free DNase set (Qiagen, Germany, Ca. No. 79254). Total RNA was then eluted in 40 μl water. […]
mRNA fold expression analysis method—The Pfaffl method was used to calculate relative transcription changes (Pfaffl, 2012, Martin Filion, Hg., Quantitative real-time PCR in Applied Microbiology, 53-62) for which the equation is shown in Equation 1: […]

[2] = tested on: mouse model of gluten sensitivity; details: elafin delivered by recombinant Lactococcus lactis; cited from earlier work
[3] = tested on: elastases and proteinase; details: cited from earlier work
[4] = biological target: T1, transglutaminase 2 (TG2) (Homo sapiens, UniProt P21980); details: in vitro; inhibits deamidation of the 33-mer gliadin peptide; cited from earlier work
T1 sequence (P21980 1-687): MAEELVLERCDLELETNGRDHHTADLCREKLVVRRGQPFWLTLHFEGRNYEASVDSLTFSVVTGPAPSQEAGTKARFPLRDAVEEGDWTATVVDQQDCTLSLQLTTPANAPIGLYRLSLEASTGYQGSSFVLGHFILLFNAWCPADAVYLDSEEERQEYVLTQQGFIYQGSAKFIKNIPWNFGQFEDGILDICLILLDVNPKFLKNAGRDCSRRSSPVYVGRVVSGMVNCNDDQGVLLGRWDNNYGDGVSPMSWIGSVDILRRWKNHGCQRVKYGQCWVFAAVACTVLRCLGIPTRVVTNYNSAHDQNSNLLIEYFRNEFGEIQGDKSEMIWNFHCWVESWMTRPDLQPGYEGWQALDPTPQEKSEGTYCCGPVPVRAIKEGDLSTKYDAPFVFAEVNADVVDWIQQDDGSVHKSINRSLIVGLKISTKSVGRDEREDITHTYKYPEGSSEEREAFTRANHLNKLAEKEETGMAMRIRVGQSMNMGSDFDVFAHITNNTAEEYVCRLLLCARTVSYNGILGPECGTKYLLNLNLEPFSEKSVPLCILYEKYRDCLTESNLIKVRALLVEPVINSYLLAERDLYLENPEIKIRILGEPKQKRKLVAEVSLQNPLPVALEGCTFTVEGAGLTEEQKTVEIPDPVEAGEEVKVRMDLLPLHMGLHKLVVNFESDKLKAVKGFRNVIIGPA

[5] = tested on: BL NCC 2705 serpin; assay: Lactose dose response in 10 L fermenter, serpin mRNA fold induction; format: cell-based, B. longum; details: addition of 0.1% lactose, among 0.05%, 1%, 2% and 2.75%, glucose added to 5.5% total sugar, base 8 h culture (FIG. 2)
Experimental: FIG. 2—Serpin mRNA level of B. longum NCC 2705 fermented in different growth medium after 8 h, 12 h and 16 h. Different proportions of glucose was replaced by lactose and fructose as shown in the y-axis and the total amount of sugar percentage was kept stable at 5.5%. The values were calculated based on B. longum NCC 2705 growth after 8 h in 5.5% glucose. Black bars represent significant induction. In order to optimize the effect of lactose on induction of BL NCC 2705 serpin, a dose response was performed. The fermentation was performed in a 10 L Biostar B Plus fermenter with MRSc medium, supplemented with 0.05% cysteine as base, and different concentration of lactose (0.05%, 0.1%, 1%, 2% and 2.75%) were added to the medium. Glucose was supplemented to the different recipes to reach a final total amount of 5.5% of total sugar. Serpin mRNA fold induction was calculated using the 8 h MRSc grown BL NCC 2705 culture as a base (FIG. 2).

Compound	serpin mRNA levels of B. longum NCC 2705 [1]	gluten-induced pathology and intestine inflammation [2]	inhibitory capacity against various forms of elastases and proteinase [3]	inhibition of transglutaminase 2 (TG2) [4]	serpin mRNA level at end of fermentation (16 h) [5]
OC[C@H]1O[C@H](OC[C@H]2O[C@H](O[C@]3(CO)O[C@H](CO)[C@@H](O)[C@@H]3O)[C@H](O)[C@@H](O)[C@@H]2O)[C@H](O)[C@@H](O)[C@H]1O [raffinose, Raffinose]	increase	–	–	–	–
elafin: human serine protease inhibitor (AQEPVKGPVSTKPGSCPIILIRCAMLNPPNRCLKDTDCPGIKKCCEGSCGMACFVPQ; ends and bridges not checked; cysteine pairing not given here; UniProt P19957 61-117, looked up)	–	reduce gluten-induced pathology and normalise intestine inflammation	potent inhibitory capacity	moderately inhibits	–
O=C(CO)[C@@H](O)[C@H](O)[C@H](O)CO [fructose, Fructose]	increase	–	–	–	–
OC[C@H]1O[C@@H](O[C@H]2[C@H](O)[C@@H](O)C(O)O[C@@H]2CO)[C@H](O)[C@@H](O)[C@H]1O (stereo partly shown) [lactose, Lactose]	increase	–	–	–	highest
